Measured values from the supplement of paper PMC10307832.

How the values were obtained:
Assay in all cases: relative viability (nuclei count vs DMSO), 5 days (fraction); higher = more cells survive
[1] = compound: CC1=CC=C(C=C1)C(=O)CN2C3=C(CCCC3)SC2=N [Pifithrin_alpha]
Outline: (§1)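 Lung cancer cell lines received five library-drug doses (not always all listed) spaced by √10, pinned on vehicle-anchored 1536-well plates after an overnight stay at 37 °C. Five days later, with no medium change, nuclei were Hoechst-stained, imaged at 4× and counted with MetaXpress. Viability is treated-well nuclei relative to vehicle-well nuclei, as a median across plates. Passing plates had control CV below 25% and at least one doubling.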

[2] = compound: CNC(=O)c1ccccc1Sc1ccc2c(/C=C/c3ccccn3)n[nH]c2c1 [Axitinib]
Outline: as §1

[3] = compound: Nc1nc(Nc2ccc3c(c2)CC[C@@H](N2CCCC2)CC3)nn1-c1cc2c(nn1)-c1ccccc1CCC2 [Bemcentinib]
Outline: as §1

[4] = compound: CC1=CC=C(C=C1)C(=O)CN2C3=C(CCCC3)SC2=N [Pifithrin_alpha] + Cc1nc(NC(=O)N2CCC[C@H]2C(N)=O)sc1-c1ccnc(C(C)(C)C(F)(F)F)c1 [Alpelisib] (partner 2 µM)
Outline: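 For relative viability, nuclei counts in treated wells were divided by those in vehicle wells. Lung cancer cell lines had been pin-tool dosed in 1536-well plates the day after seeding and cultured for 5 days, then fixed and stained in one step (final 0.05% Triton X-100, 1% formaldehyde, 1 ug/ml Hoechst) and imaged at 4×. Doses were one drug alone or a fixed anchor-drug dose plus five library-drug doses (not always all listed) in √10 steps, and values are duplicate-plate medians.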

Cell Line	relative viability ([1]; 1 µM)	relative viability ([1]; 3.162 µM)	relative viability ([1]; 10 µM)	relative viability ([1]; 31.62 µM)	relative viability ([1]; 100 µM)	relative viability ([2]; 0.005 µM)	relative viability ([2]; 0.01581 µM)	relative viability ([2]; 0.05 µM)	relative viability ([2]; 0.1581 µM)	relative viability ([2]; 0.5 µM)	relative viability ([3]; 0.04 µM)	relative viability ([3]; 0.1265 µM)	relative viability ([3]; 0.4 µM)	relative viability ([3]; 1.265 µM)	relative viability ([3]; 4 µM)	relative viability ([4]; first compound 1 µM)	relative viability ([4]; first compound 3.162 µM)	relative viability ([4]; first compound 10 µM)	relative viability ([4]; first compound 31.62 µM)	relative viability ([4]; first compound 100 µM)
HCC-827	1.03	1.02	0.977	0.809	0.896	1.03	1.01	1.06	1.1	1.15	1.07	1.05	0.994	0.976	1.06	0.878	1.03	0.919	0.626	0.823
EPLC-272H	0.622	0.892	0.859	0.755	0.802	0.943	0.832	0.938	0.896	0.83	0.749	0.991	1.01	0.906	0.841	–	0.965	0.914	0.934	1.02
SW 1573	1.04	1.01	1.09	0.787	0.981	0.982	1	1.09	0.867	1.08	0.912	1.06	1.1	0.921	0.968	0.715	0.824	0.816	0.647	0.729
LXF-289	1.02	1.02	0.98	0.941	0.977	1.01	0.971	0.994	0.963	1.05	1.03	1.09	1.06	1.06	1.05	1.09	1.01	1.08	0.921	1.03
SK-LU-1	1.08	1.16	1.21	0.805	1.21	1.06	1.12	0.946	1.04	1.15	1.04	1.19	1.13	1.08	1.12	0.828	1.19	1.13	0.766	1.16
NCI-H23	0.847	0.846	0.959	0.582	0.787	1.02	0.954	1.15	0.926	0.97	0.92	1.24	1.13	0.838	1.06	0.586	0.572	0.634	0.466	0.592
NCI-H1299	0.997	1.06	1.02	0.812	1.02	1.04	1	1.05	1	1.08	1.02	1.02	1.05	0.994	1.05	1.1	1.09	1.07	0.874	1.18
CAL-12T	0.778	1	0.937	0.711	0.765	1.03	1	0.983	0.94	0.977	0.989	1.02	1.06	1.02	1.01	–	1.04	0.971	0.736	1.13
A-427	0.975	0.957	0.804	0.788	1.02	1.02	0.93	1.02	1.02	0.964	0.935	1.11	1.05	0.93	0.931	0.756	1.04	1.03	0.836	1
NCI-H2009	0.96	1.01	0.974	0.65	0.878	1.01	1	1.05	1.06	1.09	1.02	1.04	1.04	1.03	1.05	1.25	1.11	1.1	0.835	0.827
UMC-11	0.965	0.949	1.04	0.907	1.23	1.03	0.943	0.956	0.935	0.899	0.982	1.13	1.08	0.871	0.995	1.09	1.07	1.05	0.842	1.16
A549	1.03	1.01	1	0.889	1.01	0.997	0.95	0.95	0.877	1.02	0.977	1.13	0.984	1.04	1.02	0.895	0.777	0.644	0.698	0.799
NCI-H596	1.12	0.886	0.958	0.973	0.996	1.04	0.956	1.03	1.06	0.947	0.883	1.03	0.924	0.908	1.07	0.373	0.452	0.492	0.532	0.443
LOU-NH91	0.774	0.911	0.878	0.731	0.765	0.989	0.796	1.05	0.973	1	0.912	0.955	1	0.984	0.997	0.63	0.637	0.635	0.616	0.583
HOP-62	0.952	1.1	1.06	0.791	1.12	1.01	0.965	1.03	1.01	1.03	1.01	1.15	0.999	1.02	1.04	1.18	1.1	0.848	0.62	0.931
NCI-H1993	0.693	0.764	0.743	0.658	0.775	1.05	0.892	0.909	0.94	0.864	0.911	0.927	1.22	0.921	0.994	–	0.692	0.757	0.568	0.607
